This is an account of results in paper PMC11008770 (Nature structural & molecular biology, 2023).

SMILES strings stand for the structures. Like-named read-outs stand apart in the source and are kept apart here.

Assay [1] has as its target T1, AE1 (Homo sapiens, UniProt P02730).
T1 sequence (P02730 1-911): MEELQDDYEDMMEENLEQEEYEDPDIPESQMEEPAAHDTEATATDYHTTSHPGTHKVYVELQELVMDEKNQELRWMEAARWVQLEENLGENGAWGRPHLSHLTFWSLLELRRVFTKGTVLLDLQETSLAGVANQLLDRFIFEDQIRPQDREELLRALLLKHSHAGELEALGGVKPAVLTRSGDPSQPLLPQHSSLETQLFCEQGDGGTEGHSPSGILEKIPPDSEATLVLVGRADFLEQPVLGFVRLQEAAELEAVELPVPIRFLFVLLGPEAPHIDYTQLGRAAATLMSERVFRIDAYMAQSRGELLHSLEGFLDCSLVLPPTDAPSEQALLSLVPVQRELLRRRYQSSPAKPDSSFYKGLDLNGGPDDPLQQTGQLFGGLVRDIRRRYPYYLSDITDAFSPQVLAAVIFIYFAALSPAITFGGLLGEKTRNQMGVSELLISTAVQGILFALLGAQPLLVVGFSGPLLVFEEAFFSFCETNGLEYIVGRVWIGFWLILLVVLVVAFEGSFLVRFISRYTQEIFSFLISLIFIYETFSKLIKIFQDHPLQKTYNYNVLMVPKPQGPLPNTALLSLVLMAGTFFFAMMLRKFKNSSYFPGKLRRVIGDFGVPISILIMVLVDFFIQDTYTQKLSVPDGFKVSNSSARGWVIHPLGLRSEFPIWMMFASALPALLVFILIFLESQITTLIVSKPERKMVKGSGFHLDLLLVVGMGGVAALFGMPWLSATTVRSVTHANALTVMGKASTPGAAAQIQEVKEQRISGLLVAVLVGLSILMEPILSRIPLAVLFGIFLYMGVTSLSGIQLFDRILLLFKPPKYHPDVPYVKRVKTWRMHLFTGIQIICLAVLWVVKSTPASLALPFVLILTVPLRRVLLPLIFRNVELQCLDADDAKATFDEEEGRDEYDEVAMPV
Put plainly: Cellular bicarbonate uptake assay. In kind it is cell-based.

Assay [2] deals with AE1. To be noted: read-out: Kd of bicarbonate; NMR studies; cited from earlier work.
For assay [3], the target named is AE1. To be noted: read-out: Kd of bicarbonate; flux studies in erythrocytes; cited from earlier work.

`O=C(O)c1cccnc1Nc1cccc(C(F)(F)F)c1` [NIF, Niflumic acid] had an IC50 on AE1 [1] of 15 µM. The “AE1 inhibition in cellular bicarbonate uptake, single dose” value at AE1 [1] (50 μM throughout the experiment, n = 3) is “statistically significant AE1 inhibition”.
On to `O=C(O)O` [bicarbonate], for which the Kd on AE1 [2] is 5400 µM; on AE1 [3], 2000 µM.
